Experimental data as given in patent US7276631B2, “Cyclopentylamine and cyclohexylamine derivatives as NK-1/SSRI antagonists” (Bristol-Myers Squibb Company, priority 2004, dated 2007).

Columns and labels:
[1] = biological target: T1, neurokinin-1 (NK-1) receptor (Homo sapiens, UniProt P25103); experiment: NK-1 binding (competition with [125I] Substance P, U373 cell membranes); settings: [125I] Substance P displacement
T1 construct: a human glioblastoma-astrocytoma cell line that endogenously express the neurokinin-1 (NK-1) receptor; endogenous in cells; host or cells: U373 human glioblastoma-astrocytoma cells (membranes)
Experimental: U373 cells, a human glioblastoma-astrocytoma cell line that endogenously express the neurokinin-1 (NK-1) receptor, were grown in a monolayer culture at 37° C. in 5% CO2 and fed with Minimum Essential Medium (MEM) supplemented with 10% fetal bovine serum. Membranes were prepared as follows: Cells were washed twice with ice-cold phosphate-buffered saline (pH 7.4) and then incubated for 5 to 10 minutes with ice-cold 10 mM Tris buffer (pH 7.4) containing 5 mM EDTA. Cells were removed from plates, homogenized, and centrifuged at 32,000×g for 20 minutes. The resulting supernatant was discarded, and the pellet resuspended by homogenization in 50 mM Tris buffer (pH 7.4) containing 1 mM EDTA and centrifuged at 32,000×g for 20 minutes. The resulting supernatant was discarded, and the pellet resuspended by homogenization in NK-1 binding assay buffer (50 mM Tris-HCL (pH 7.4), 3 mM MnCl2, 200 μg/ml BSA, 5 μg/ml chymostatin, 40 μg/ml bacitracin and 4 μg/ml leupeptin).
On the day of an experiment the membrane preparation was thawed, homogenized and diluted with NK-1 binding assay buffer to the appropriate concentration. Competition binding assays were performed in 96 well plate format by incubating membranes (5-10 ug/well) with Bolton Hunter labeled [^125I] Substance P, at a concentration of […], and concentrations of drugs ranging from 10000 to 0.01 nM. Samples were incubated for 30 min at 20° C. then filtered through GF/B glass fiber filters (pretreated with 1% polyethyleneimine and 0.3% Triton X-100) using a Brandel cell harvester. The filters were then washed with 10 ml ice cold 50 mM Tris-HCL (pH 7.4) containing 3 mM MgCl2. Non-specific was defined in the presence of 2 μM L-733,060 (a non-peptide NK-1 antagonist). Amount of radioligand bound in the presence and absence of competitor was analyzed by plotting (−)log drug concentration versus the amount of radioligand specifically bound. The midpoint of the displacement curve (IC50, nM), signifies the potency. Ki values were calculated using the method of Cheng and Prusoff [Cheng, Y.-C. and Prusoff, W. H., Biochemical Pharmacology, Vol. 22, pp. 3099-3108, Pergamon Press (1973)].

[2] = biological target: T2, human serotonin transporters (Homo sapiens, UniProt P31645); experiment: Serotonin transporter binding assay ([3H]-citalopram, HEK-hSERT cell membranes); settings: [3H]-citalopram displacement, read-out: SERT IC50
T2 construct: expressed in transfected cells; host or cells: HEK-293 cells stably expressing hSERT (membranes)
Experimental: HEK-293 cells that stably express human serotonin transporters (HEK-hSERT cells) were grown at 37° C. in 5% CO2 as a monolayer in medium consisting of EMEM supplemented with 10% fetal bovine serum and G418 sulfate (500 μg/ml). To prepare membranes for radioligand binding experiments, cells were rinsed twice with phosphate-buffered saline (138 mM NaCl, 4.1 mM KCl, 5.1 mM Na2PO4, 1.5 mM […], 11.1 mM glucose, pH 7.4). Cells were transferred from plates to polypropylene tubes (16×100 mm), centrifuged at 1,200×g for 5 min and were frozen at −80° C. until assay. Following centrifugation, pellets were resuspended by homogenization in buffer consisting of 50 mM Tris (pH 7.7 at 25° C.), 120 mM NaCl and 5 mM KCl and then centrifuged at 32,000×g for 10 min. Following centrifugation, supernatants were discarded and pellets were resuspended in buffer consisting of 50 mM Tris (pH 7.4 at 25° C.), 150 mM NaCl and 5 mM KCl. Membrane homogenates (200 μl/plate) were incubated with 1 nM [^3H]-citalopram (specific activity=85 Ci/mmol) and increasing concentrations of test compounds for 1 hr at 25° C. in a total volume of 250 μl. The assay buffer consisted of 50 mM Tris (pH 7.4 at 25° C.), 120 mM NaCl and 5 mM KCl (pH 7.4 with conc. HCl). Plates were incubated for 1 hr at 25° C., then filtered through 0.5% PEI treated Whatman GF/B filters using a Brandel cell harvester. Filters were washed three times with 3 ml of ice-cold tris wash buffer. Non-specific binding was defined with 10 μM fluoxetine. Amount of radioligand bound in the presence and absence of competitor was analyzed by plotting (−)log drug concentration versus the amount of radioligand specifically bound. The midpoint of the displacement curve (IC50, nM), signifies the potency. Ki values were calculated using the method of Cheng and Prusoff [Cheng, Y.-C. and Prusoff, W. H., Biochemical Pharmacology, Vol. 22, pp. 3099-3108, Pergamon Press (1973)].

T2 sequence (P31645 whole entry): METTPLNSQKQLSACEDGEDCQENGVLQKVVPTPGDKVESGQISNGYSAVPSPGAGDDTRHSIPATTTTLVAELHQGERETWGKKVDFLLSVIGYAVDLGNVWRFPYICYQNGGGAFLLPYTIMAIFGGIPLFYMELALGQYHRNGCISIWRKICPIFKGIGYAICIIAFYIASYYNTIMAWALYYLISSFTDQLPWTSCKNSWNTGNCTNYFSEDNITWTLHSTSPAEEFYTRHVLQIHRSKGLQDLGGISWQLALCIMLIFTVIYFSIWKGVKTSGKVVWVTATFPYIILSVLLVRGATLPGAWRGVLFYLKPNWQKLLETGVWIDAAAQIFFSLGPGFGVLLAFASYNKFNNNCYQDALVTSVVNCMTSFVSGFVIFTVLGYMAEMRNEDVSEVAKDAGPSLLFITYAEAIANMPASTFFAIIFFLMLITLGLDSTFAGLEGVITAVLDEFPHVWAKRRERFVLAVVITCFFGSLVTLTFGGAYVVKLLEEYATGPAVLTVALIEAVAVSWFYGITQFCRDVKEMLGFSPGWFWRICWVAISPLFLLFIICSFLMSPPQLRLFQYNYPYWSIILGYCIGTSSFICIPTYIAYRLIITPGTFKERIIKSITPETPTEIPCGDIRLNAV
T1 sequence (P25103 whole entry): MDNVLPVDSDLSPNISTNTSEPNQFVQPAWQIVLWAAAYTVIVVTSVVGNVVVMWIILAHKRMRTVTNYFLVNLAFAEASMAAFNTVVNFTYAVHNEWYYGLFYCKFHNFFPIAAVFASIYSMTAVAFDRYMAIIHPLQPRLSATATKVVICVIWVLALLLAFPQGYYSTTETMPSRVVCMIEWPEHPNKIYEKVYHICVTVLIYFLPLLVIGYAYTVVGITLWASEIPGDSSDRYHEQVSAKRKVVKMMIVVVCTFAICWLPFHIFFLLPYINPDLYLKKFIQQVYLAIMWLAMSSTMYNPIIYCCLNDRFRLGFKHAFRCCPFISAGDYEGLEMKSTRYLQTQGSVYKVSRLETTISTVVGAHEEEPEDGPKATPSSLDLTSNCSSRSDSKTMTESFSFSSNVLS

| IC50 [1] | IC50 [2] | SMILES |
| --- | --- | --- |
| < 20 nM | < 20 nM | N[C@H]1CC[C@@](COCc2cc(C(F)(F)F)cc(C(F)(F)F)c2)(c2ccccc2)C1 [Example 10, (1S,3S)-3-((3,5-bis(trifluoromethyl)benzyloxy)methyl)-3-phenylcyclopentanamine] |
| 20 to 100 nM | 100 to 300 nM | CCN(CC)C1CCCC(COCc2cc(C(F)(F)F)cc(C(F)(F)F)c2)(c2ccccc2)C1 (stereo not drawn) [Example 13, 3-((3,5-bis(trifluoromethyl)benzyloxy)methyl)-N,N-diethyl-3-phenylcyclohexanamine] |
| 20 to 100 nM | – | FC(F)(F)c1cc(COCC2(c3ccccc3)CCCC(NC3CC3)C2)cc(C(F)(F)F)c1 (stereo not drawn) [Example 15, 3-((3,5-bis(trifluoromethyl)benzyloxy)methyl)-N-cyclopropyl-3-phenylcyclohexanamine] |
| < 20 nM | – | FC(F)(F)c1cc(COCC2(c3ccccc3)CCC(NC3CC3)C2)cc(C(F)(F)F)c1 (stereo not drawn) [Example 4, 3-((3,5-Bis(trifluoromethyl)benzyloxy)methyl)-N-cyclopropyl-3-phenylcyclopentanamine] |
| 100 to 300 nM | – | CN1CCN(C2CCCC(COCc3cc(C(F)(F)F)cc(C(F)(F)F)c3)(c3ccccc3)C2)CC1 (stereo not drawn) [Example 19, 1-(3-((3,5-bis(trifluoromethyl)benzyloxy)methyl)-3-phenylcyclohexyl)-4-methylpiperazine] |
| < 20 nM | 100 to 300 nM | CNC1CCCC(COCc2cc(C(F)(F)F)cc(C(F)(F)F)c2)(c2ccccc2)C1 (stereo not drawn) [Example 11, 3-((3,5-bis(trifluoromethyl)benzyloxy)methyl)-N-methyl-3-phenylcyclohexanamine] |
| 20 to 100 nM | – | FC(F)(F)c1cc(COCC2(c3ccccc3)CCCC(N3CCCCC3)C2)cc(C(F)(F)F)c1 (stereo not drawn) [Example 18, 1-(3-((3,5-bis(trifluoromethyl)benzyloxy)methyl)-3-phenylcyclohexyl)piperidine] |
| < 20 nM | 20 to 100 nM | N[C@@H]1CC[C@](COCc2cc(C(F)(F)F)cc(C(F)(F)F)c2)(c2ccccc2)C1 [Example 9, (1R,3R)-3-((3,5-bis(trifluoromethyl)benzyloxy)methyl)-3-phenylcyclopentanamine] |
| < 20 nM | – | FC(F)(F)c1cc(COCC2(c3ccccc3)CCC(N3CCCCC3)C2)cc(C(F)(F)F)c1 (stereo not drawn) [Example 1, 1-(3-((3,5-Bis(trifluoromethyl)benzyloxy)methyl)-3-phenylcyclopentyl)piperidine] |
| < 20 nM | 20 to 100 nM | CN(C)C1CCC(COCc2cc(C(F)(F)F)cc(C(F)(F)F)c2)(c2ccccc2)C1 (stereo not drawn) [Example 6, 3-((3,5-bis(trifluoromethyl)benzyloxy)methyl)-N,N-dimethyl-3-phenylcyclopentanamine] |
| < 20 nM | 20 to 100 nM | N[C@H]1CC[C@](COCc2cc(C(F)(F)F)cc(C(F)(F)F)c2)(c2ccccc2)C1 [Example 7, (1S,3R)-3-((3,5-bis(trifluoromethyl)benzyloxy)methyl)-3-phenylcyclopentanamine] |
| 100 to 300 nM | – | CN(C)C1CCCC(COCc2cc(C(F)(F)F)cc(C(F)(F)F)c2)(c2ccccc2)C1 (stereo not drawn) [Example 12, 3-((3,5-bis(trifluoromethyl)benzyloxy)methyl)-N,N-dimethyl-3-phenylcyclohexanamine] |
| 100 to 300 nM | – | FC(F)(F)c1cc(COCC2(c3ccccc3)CCCC(N3CCCC3)C2)cc(C(F)(F)F)c1 (stereo not drawn) [Example 17, 1-(3-((3,5-bis(trifluoromethyl)benzyloxy)methyl)-3-phenylcyclohexyl)pyrrolidine] |
| < 20 nM | – | COCCN(C)C1CCC(COCc2cc(C(F)(F)F)cc(C(F)(F)F)c2)(c2ccccc2)C1 (stereo not drawn) [Example 5, 3-((3,5-bis(trifluoromethyl)benzyloxy)methyl)-N-(2-methoxyethyl)-N-methyl-3-phenylcyclopentanamine] |
| 20 to 100 nM | – | FC(F)(F)c1cc(COCC2(c3ccccc3)CCC(N3CCOCC3)C2)cc(C(F)(F)F)c1 (stereo not drawn) [Example 3, 4-(3-((3,5-bis(trifluoromethyl)benzyloxy)methyl)-3-phenylcyclopentyl)morpholine] |
| < 20 nM | – | FC(F)(F)c1cc(COCC2(c3ccccc3)CCC(N3CCCC3)C2)cc(C(F)(F)F)c1 (stereo not drawn) [Example 2, 1-(3-((3,5-Bis(trifluoromethyl)benzyloxy)methyl)-3-phenylcyclopentyl)pyrrolidine] |
| 100 to 300 nM | – | FC(F)(F)c1cc(COCC2(c3ccccc3)CCCC(N3CCOCC3)C2)cc(C(F)(F)F)c1 (stereo not drawn) [Example 16, 4-(3-((3,5-bis(trifluoromethyl)benzyloxy)methyl)-3-phenylcyclohexyl)morpholine] |
| < 20 nM | 100 to 300 nM | CCNC1CCCC(COCc2cc(C(F)(F)F)cc(C(F)(F)F)c2)(c2ccccc2)C1 (stereo not drawn) [Example 14, 3-((3,5-bis(trifluoromethyl)benzyloxy)methyl)-N-ethyl-3-phenylcyclohexanamine] |
| < 20 nM | 100 to 300 nM | N[C@@H]1CC[C@@](COCc2cc(C(F)(F)F)cc(C(F)(F)F)c2)(c2ccccc2)C1 [Example 8, (1R,3S)-3-((3,5-bis(trifluoromethyl)benzyloxy)methyl)-3-phenylcyclopentanamine] |
